Results from PubChem BioAssay (NCI).
Several values for one entry are separate records, joined by “and”; a condition that tells them apart may be missing. Equal entries are not always repeated.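 Briefly, cells in 96-well plates were exposed to five compound concentrations for 48 h, and endpoints were estimated by linear interpolation. Here, GI50 denotes the concentration required for 50% inhibition of growth. Definition used: TGI = concentration required for complete inhibition of growth.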

Key:
Assay in all cases: inhibition of tumour cell growth, NCI panel, 48 h
MDA-MB-435 = system: MDA-MB-435
DU-145 prostate = system: DU-145 prostate
KM20L2 colon = system: KM20L2 colon
DMS 273 small cell lung = system: DMS 273 small cell lung
M19-MEL melanoma = system: M19-MEL melanoma
SNB-78 CNS = system: SNB-78 CNS
MDA-N = system: MDA-N
HOP-18 NSCLC = system: HOP-18 NSCLC

Structure (SMILES)	GI50 (MDA-MB-435) [µM]	TGI (MDA-MB-435)	GI50 (DU-145 prostate) [µM]	TGI (DU-145 prostate)	TGI (M19-MEL melanoma) [µM]	other results
COC1=CC(c2ccc[nH]2)=N/C1=C\c1[nH]c(C)c(C(=O)CCCCC(=O)Nc2ccccc2)c1C	1.79	3.74 µM	1.2	2.5 µM	–	–
CCCN(CCC)c1ccc(/C=N/NC(=O)c2cccnc2)c(Cl)c1	2.68	12.4 µM	17.8	49 µM	–	–
O=C1CCC2(CC1)SCCCS2	–	–	–	–	> 100	TGI (KM20L2 colon): > 100 µM; TGI (DMS 273 small cell lung): > 100 µM
c1ccc(CN(Cn2cccn2)Cn2cccn2)nc1	–	–	–	–	> 100	TGI (SNB-78 CNS): > 100 µM; TGI (KM20L2 colon): > 100 µM; TGI (DMS 273 small cell lung): > 100 µM
COC(=O)C1=C(C(=O)OC)C23C=C(C)C1C2=C(C)C1(CC1)[C@@](C)(O)C3=O (stereo partly specified)	–	–	0.197	> 100 µM	–	–
CCOC(=O)c1sc(=S)c2c(C(=O)OCC)c(C(=O)OCC)sc2c1C(=O)OCC	27.4	67.2 µM	17.4	39 µM	–	–
Cc1nc(NC(=O)CCCN2C(=O)c3cccc4cccc(c34)C2=O)sc1C(=O)Nc1cc(C(=O)NCCCN(C)C)n(C)c1	> 100	> 100 µM	> 100	> 100 µM	–	–
COc1ccc([N+](=O)[O-])c(S(=O)(=O)c2ccc(Cl)cc2)n1	1.75	3.66 µM	9.63	21.3 µM	–	–
COc1ccc(-c2nc(-c3nc4ccc(OC)cc4[nH]3)cc3c2[nH]c2ccccc23)cc1	4.31	> 100 µM	2.06	> 100 µM	–	–
Cc1ccc(C)c(-c2csc(Nc3ccc(C)c(C)c3)n2)c1	> 100	> 100 µM	> 100	> 100 µM	–	–
Cc1cc(Cl)ccc1N=C1NC(=O)C(CC(=O)Nc2ccc(Cl)cc2Cl)S1 (stereo unspecified)	–	–	–	–	> 100	TGI (SNB-78 CNS): > 100 µM; TGI (KM20L2 colon): > 100 µM; TGI (DMS 273 small cell lung): > 100 µM
O=[N+]([O-])c1nccn1COCCF	–	–	–	–	> 100	TGI (SNB-78 CNS): > 100 µM; TGI (KM20L2 colon): > 100 µM
C[C@@]12CCC(=O)C=C1CC[C@H]1C2=CC[C@]2(C)C1CC[C@@]2(C)O (stereo partly specified)	–	> 100 µM	–	> 100 µM	–	TGI (MDA-N): > 100 µM
N#Cc1ccnc(N2C(=O)CC[C@H]2C(=O)N(c2cncc(F)c2)[C@H](C(=O)NC2CC(F)(F)C2)c2ccccc2Cl)c1	64	> 100 µM	82.5	> 100 µM	–	–
O=c1c2ccccc2c2nc3ccccc3nc2n1C1CCCCC1	–	–	–	–	> 100	TGI (SNB-78 CNS): > 100 µM; TGI (KM20L2 colon): > 100 µM; TGI (DMS 273 small cell lung): > 100 µM
OCC12C3C4C1C1C2C3C41CO (stereo unspecified)	–	–	–	–	> 100	TGI (SNB-78 CNS): > 100 µM; TGI (KM20L2 colon): > 100 µM; TGI (HOP-18 NSCLC): > 100 µM
CC(C)(C)C(=O)C1CC(=O)c2ccccc2C1=O (stereo unspecified)	–	–	–	–	> 100	TGI (SNB-78 CNS): 90.7 µM; TGI (KM20L2 colon): > 100 µM; TGI (HOP-18 NSCLC): > 100 µM
CSc1nc2sc3cc(Cl)ccc3n2c(=N)c1C#N	> 100	> 100 µM	> 68.7	> 100 µM	–	–
COc1ccc2c(c1)CC[C@@H]1[C@@H]2CC[C@]2(C)C(c3ccco3)=C(C=O)C[C@@H]12	2.21	5.88 µM	7.82	27 µM	–	–
CC(=O)N=c1ccc2nc3c(cc(N)c4ccccc43)oc-2c1	0.207	0.421 µM	1.66	3.03 µM	–	–
O=C1C(=O)C(Br)(Br)C(Br)=C1Br	–	–	–	–	34.4	TGI (KM20L2 colon): 30.7 µM; TGI (HOP-18 NSCLC): 29.8 µM; TGI (DMS 273 small cell lung): 48.1 µM
C=C1C(=O)O[C@H]2[C@H]1CC/C(COC(=O)NCc1c[nH]c3ccc(Cl)cc13)=C\CC[C@@]1(C)O[C@@H]21	1.12	2.48 µM	1.2	2.65 µM	–	–
C1=Cc2nc1c(-c1ccncc1)c1ccc([n-]1)c(-c1ccncc1)c1nc(c(-c3ccncc3)c3ccc([n-]3)c2-c2ccncc2)C=C1.[Zn+2]	–	–	–	–	> 100	TGI (SNB-78 CNS): > 100 µM; TGI (KM20L2 colon): > 100 µM
NS(=O)(=O)c1ccc(N2N=C3c4ccccc4CC3C2c2ccc(Cl)cc2)cc1 (stereo unspecified)	16.1	37.2 µM	14.2	36.7 µM	–	–
O=C1OC(O)C(Oc2ccc(Cl)cc2)=C1Cl (stereo unspecified)	–	–	–	–	> 100	TGI (SNB-78 CNS): > 100 µM; TGI (KM20L2 colon): > 100 µM; TGI (DMS 273 small cell lung): > 100 µM
N#CCCN(c1ccc(-c2nnc(NC(=O)CNNC(=O)CC(=O)Nc3ccccc3)s2)cc1)S(=O)(=O)c1ccccc1	–	–	–	–	> 100	TGI (HOP-18 NSCLC): > 100 µM; TGI (DMS 273 small cell lung): > 100 µM
CO[C@@H]1[C@H](OC(=O)NC(=O)CCl)CC[C@]2(CO2)[C@H]1[C@@]1(C)O[C@@H]1CC=C(C)C	5.68	29.3 µM and 36.8 µM	22.2	29.3 µM and 46.3 µM	24.2	TGI (MDA-N): 27.3 µM; TGI (KM20L2 colon): 41.5 µM; GI50 (M19-MEL melanoma): 1.17 µM
Cn1cc(C2=C(c3cn(CCN)c4ccccc34)C(=O)NC2=O)c2ccccc21	3.81	19.4 µM	8.63	> 25 µM	–	–

Structure (SMILES)	GI50 (MDA-MB-435) [µM]	TGI (MDA-MB-435)	GI50 (DU-145 prostate) [µM]	TGI (DU-145 prostate)	TGI (M19-MEL melanoma) [µM]	other results
Cc1ccc(C)c(NC(=O)CC/C(=N\NC(=O)C(N)=O)C(C)C(=O)c2ccc(O)cc2)c1 (stereo unspecified)	–	–	–	–	> 100	TGI (SNB-78 CNS): > 100 µM; TGI (KM20L2 colon): > 100 µM; TGI (HOP-18 NSCLC): > 100 µM
NS(=O)(=O)c1ccc(CCN=C=S)cc1	1.91	3.88 µM	1.8	3.83 µM	–	–
O=C(/C=C\c1ccc(Cl)cc1Cl)c1cccs1	–	36.2 µM	–	44.9 µM	–	TGI (MDA-N): 35.8 µM
C[C@@H]1C=C2C(=O)O[C@@H]3CC[C@H](C1)[C@]23O	3.39	13.7 µM	2.14	5.78 µM	–	–
C=C(C)[C@@H]1CC[C@]2(C)[C@H](CC[C@@H]3[C@H]4[C@H]5OC[C@@]4(CCC5(C)C)CC[C@]32C)[C@@]1(C)CCCN	1.76	3.24 µM	1.86	3.36 µM	–	–
COc1ccc(-c2ccc(C3CC(c4ccc(Cl)cc4)=NN3)o2)c([N+](=O)[O-])c1 (stereo unspecified)	> 100	> 100 µM	> 100	> 100 µM	–	–
NCCNC(=S)S	–	> 100 µM	–	> 100 µM	–	TGI (MDA-N): > 100 µM
O=C(Nc1nc2ncn(CC(COc3ccccc3)OC(=O)c3ccccc3)c2c(=O)[nH]1)c1ccccc1 (stereo unspecified)	–	–	–	–	> 100	TGI (KM20L2 colon): > 100 µM; TGI (DMS 273 small cell lung): > 100 µM
COc1cc2nc(Nc3cccc(F)c3)nc(Nc3cc(C)[nH]n3)c2cc1OC	1.63	3.16 µM	1.64	3 µM	–	–
CCCCCCCC[N+](C)(CCCCCCCC)CCCCCCCC	0.273	1.01 µM	0.414	1.41 µM	–	–
COc1ccc2c(c1)CCC1C2CC[C@]2(C)/C(=N/OC(=O)Cc3ccccc3)CCC12 (stereo partly specified)	16.7	30.5 µM	28.6	69.2 µM	–	–
Cc1ccccc1C(C#N)C(=O)C(=O)Nc1cccc(Cl)c1 (stereo unspecified)	–	–	–	–	95.5	TGI (SNB-78 CNS): > 100 µM; TGI (KM20L2 colon): > 100 µM; TGI (DMS 273 small cell lung): > 100 µM
Cc1[nH]c(=O)[nH]c(=O)c1CO	> 100	> 100 µM	> 100	> 100 µM	–	–
NCc1nnn(Cc2ccccc2)c1N	–	> 100 µM	–	> 100 µM	–	TGI (MDA-N): > 100 µM
CN(C)CCCc1c[nH]c2ccccc12	–	> 100 µM	–	> 100 µM	–	TGI (MDA-N): > 100 µM
CCCc1nc2c(C)cc(-c3nc4ccccc4n3C)cc2n1Cc1ccc(-c2ccccc2C(=O)O)cc1	33.9	> 100 µM	44	> 100 µM	–	–
CCOC(=O)c1c(C(F)(F)F)n([O-])c2ccc(OC)cc2[n+]1=O	4.47	76 µM	5.15	> 100 µM	–	–
COc1ccc2nc3ccccc3c(NCCCCCCN(C)CCCl)c2c1	–	–	–	–	1.65	TGI (SNB-78 CNS): 4.79 µM; TGI (KM20L2 colon): 2.54 µM; TGI (DMS 273 small cell lung): 1.26 µM
COc1ccc(NC(=O)c2sc3nc(C)c(C(O)c4ccccc4)cc3c2N)cc1 (stereo unspecified)	0.291	0.971 µM	3.21	> 100 µM	–	–
COc1cc(-n2cc(-c3ccc(Cl)cc3)[nH]c2=O)cc(OC)c1OC	88.4	> 100 µM	57.4	> 100 µM	–	–
Cc1ccc(S(=O)(=O)N2CCc3ccc(O)c4c3C2Cc2cc(Cl)ccc2-4)cc1 (stereo unspecified)	0.635	1.45 µM	0.912	2.4 µM	–	–
COc1ccc(/C=C/c2n[nH]c3ccc(N4CCOC4=O)cc23)cc1	3.2	38.6 µM	3.43	> 100 µM	–	–
COc1ccc(C2=NN(C(C)=O)C(c3cn(-c4ccccc4)nc3-c3ccc(Cl)cc3)C2)cc1 (stereo unspecified)	> 100	> 100 µM	> 100	> 100 µM	–	–
CCC(C)C(NC(=O)C1CCCN1C(=O)C(NC(=O)C(C)N)C(C)C)C(N)=O (stereo unspecified)	> 100	> 100 µM	> 100	> 100 µM	–	–
CCn1cnc2c(Nc3cccc(Cl)c3)nc(N[C@@H]3CCCC[C@@H]3N)nc21	1.42	2.82 µM	1.01	3.15 µM	–	–
COc1ccc(/C(C)=N/OC(=O)c2c(-c3ccccc3Cl)noc2C)cc1CN1CCOCC1	–	57.3 µM	–	> 100 µM	–	TGI (MDA-N): 39.9 µM
O=C(COc1ccccc1)NS(=O)(=O)c1ccccc1	–	–	–	–	> 100	TGI (SNB-78 CNS): > 100 µM; TGI (KM20L2 colon): > 100 µM; TGI (HOP-18 NSCLC): > 100 µM
